The text below walks through data of patent US10988477B2 (Merck Patent GmbH, priority 2018, dated 2021).

The target of test [1] is intracellular GCN2 (phosphorylation of the GCN2 substrate eIF2α) (Homo sapiens, UniProt Q9P2K8). Description: GCN2 cellular inhibition assay (AlphaScreen SureFire P-eIF2α Ser51, borrelidin-treated U2OS cells). Format: cell-based. Particulars: compounds of Formula IV; biomarker assay, phosphorylated eIF2α Ser51 in borrelidin-treated U2OS cells. In short, it runs like this:
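U2OS cells adhered overnight, then treated with compounds (4-fold serial dilutions from 40 μM final) plus borrelidin 10 μM final for 1 h at 37 °C. Lysate eIF2α Ser51 phosphorylation measured by AlphaScreen SureFire. Percent inhibition calculated relative to borrelidin-only wells.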

The target in a further test is GCN2 kinase (Homo sapiens, UniProt Q9P2K8). Nature of the test: GCN2 enzyme inhibition assay (Transcreener ADP2 fluorescence polarization). Format: biochemical. Particulars: Enzyme activity for compounds of Formula IV; Ki(app), 280 μM ATP, 25° C. An outline of the steps:
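Inhibition of 4 nM GCN2 was measured with compound up to 8 μM final, ATP 280 μM and (RS)7 peptide 200 μM over a 1 h, 25 °C reaction. ADP FP readout; IC50 and Ki(app) calculated from percent inhibition.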

Chain of GCN2 kinase (Q9P2K8 whole entry): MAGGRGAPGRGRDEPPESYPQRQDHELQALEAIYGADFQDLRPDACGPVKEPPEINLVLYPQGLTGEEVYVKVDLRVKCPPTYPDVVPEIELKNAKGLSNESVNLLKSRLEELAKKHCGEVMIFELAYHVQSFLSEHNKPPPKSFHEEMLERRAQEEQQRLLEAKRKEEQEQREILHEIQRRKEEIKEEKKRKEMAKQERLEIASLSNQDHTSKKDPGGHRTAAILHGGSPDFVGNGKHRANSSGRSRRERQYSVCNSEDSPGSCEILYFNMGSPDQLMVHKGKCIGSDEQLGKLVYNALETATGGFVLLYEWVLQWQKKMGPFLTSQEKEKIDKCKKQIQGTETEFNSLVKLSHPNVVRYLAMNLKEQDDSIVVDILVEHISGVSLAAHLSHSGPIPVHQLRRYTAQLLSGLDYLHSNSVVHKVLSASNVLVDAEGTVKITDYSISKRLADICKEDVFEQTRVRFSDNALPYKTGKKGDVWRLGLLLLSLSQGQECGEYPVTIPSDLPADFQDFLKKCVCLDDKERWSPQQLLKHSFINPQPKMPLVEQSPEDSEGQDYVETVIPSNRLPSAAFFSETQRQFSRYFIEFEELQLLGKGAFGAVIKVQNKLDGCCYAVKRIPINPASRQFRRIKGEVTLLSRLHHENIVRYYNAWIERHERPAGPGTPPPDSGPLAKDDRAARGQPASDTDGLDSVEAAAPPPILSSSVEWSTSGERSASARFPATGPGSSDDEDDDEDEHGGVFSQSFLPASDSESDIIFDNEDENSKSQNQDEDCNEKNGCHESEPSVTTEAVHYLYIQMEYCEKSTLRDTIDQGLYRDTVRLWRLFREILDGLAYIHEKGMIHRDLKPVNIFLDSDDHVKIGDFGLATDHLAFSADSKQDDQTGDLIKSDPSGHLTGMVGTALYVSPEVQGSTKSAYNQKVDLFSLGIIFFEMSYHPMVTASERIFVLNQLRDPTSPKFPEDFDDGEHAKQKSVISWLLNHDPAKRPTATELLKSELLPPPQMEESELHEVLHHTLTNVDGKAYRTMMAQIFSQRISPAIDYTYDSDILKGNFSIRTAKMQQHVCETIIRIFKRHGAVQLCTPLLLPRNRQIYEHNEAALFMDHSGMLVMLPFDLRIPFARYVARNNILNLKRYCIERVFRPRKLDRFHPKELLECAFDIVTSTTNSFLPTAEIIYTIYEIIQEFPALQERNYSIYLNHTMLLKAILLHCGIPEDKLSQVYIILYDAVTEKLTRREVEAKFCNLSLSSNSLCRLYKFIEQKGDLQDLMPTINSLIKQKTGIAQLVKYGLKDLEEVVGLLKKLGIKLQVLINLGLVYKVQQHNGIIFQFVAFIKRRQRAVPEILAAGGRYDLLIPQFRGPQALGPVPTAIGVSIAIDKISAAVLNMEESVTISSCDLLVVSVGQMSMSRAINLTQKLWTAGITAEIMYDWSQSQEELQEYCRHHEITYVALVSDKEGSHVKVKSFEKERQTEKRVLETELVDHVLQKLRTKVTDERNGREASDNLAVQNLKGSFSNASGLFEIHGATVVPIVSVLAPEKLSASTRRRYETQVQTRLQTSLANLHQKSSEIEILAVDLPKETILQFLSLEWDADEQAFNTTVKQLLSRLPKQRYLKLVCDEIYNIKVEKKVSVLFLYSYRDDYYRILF
Chain of intracellular GCN2 (phosphorylation of the GCN2 substrate eIF2α) (Q9P2K8 whole entry): as above

As to `NS(=O)(=O)C1CCCN(c2ccnc(-c3cnc4cnc(C(F)F)cn34)n2)C1` (centres unmarked) [IV-56, 1-(2-(6-(Difluoromethyl)imidazo[1,2-a]pyrazin-3-yl)pyrimidin-4-yl)piperidine-3-sulfonamide], the IC50 in test [1] was > 5000 nM. The Ki at GCN2 kinase is 100 to 1000 nM.
The like results for `CC1(C(N)=O)CCCN(c2ccnc(-c3cnc4cnc(C(F)F)cn34)n2)C1` (centres unmarked) [IV-57, 1-(2-(6-(Difluoromethyl)imidazo[1,2-a]pyrazin-3-yl)pyrimidin-4-yl)-3-methylpiperidine-3-carboxamide] were, in that order, > 5000 nM and 100 to 1000 nM.
On to `FC(F)c1cn2c(-c3nccc(N4CCCC(c5cn[nH]c5)C4)n3)cnc2cn1` (centres unmarked) [IV-58, 3-(4-(3-(1H-Pyrazol-4-yl)piperidin-1-yl)pyrimidin-2-yl)-6-(difluoromethyl)imidazo[1,2-a]pyrazine], for which the concentration for half-maximal inhibition (IC50) in test [1] was 500 to 5000 nM. The Ki on GCN2 kinase is 10 to 100 nM.
In the same order, the values of `FC(F)(F)c1cn2c(-c3nccc(N4CCCC(c5cn[nH]c5)C4)n3)cnc2cn1` (centres unmarked) [IV-59, 3-(4-(3-(1H-Pyrazol-4-yl)piperidin-1-yl)pyrimidin-2-yl)-6-(trifluoromethyl)imidazo[1,2-a]pyrazine] are < 500 nM and < 10 nM.
In the same order, the values of `NC(=O)[C@H]1CCCN(c2ccnc(-c3cnc4cnc(C(F)(F)F)cn34)n2)C1` [IV-60, (S)-1-(2-(6-(Trifluoromethyl)imidazo[1,2-a]pyrazin-3-yl)pyrimidin-4-yl)piperidine-3-carboxamide] are 500 to 5000 nM and < 10 nM.
In the same order, the values of `CC(NS(C)(=O)=O)C1CN(c2ccnc(-c3cnc4cnc(C(F)F)cn34)n2)CCO1` (centres unmarked) [IV-61, N-(1-(4-(2-(6-(Difluoromethyl)imidazo[1,2-a]pyrazin-3-yl)pyrimidin-4-yl)morpholin-2-yl)ethyl)methanesulfonamide] are > 5000 nM and 100 to 1000 nM.
On to `CC(NS(C)(=O)=O)C1CN(c2ccnc(-c3cnc4cnc(C(F)F)cn34)n2)CCO1` (centres unmarked) [IV-62, N-(1-(4-(2-(6-(Difluoromethyl)imidazo[1,2-a]pyrazin-3-yl)pyrimidin-4-yl)morpholin-2-yl)ethyl)methanesulfonamide], for which the IC50 in test [1] was > 5000 nM. This compound also gave a Ki on GCN2 kinase of 100 to 1000 nM.
As to `NC(=O)C1CCN(c2ccnc(-c3cnc4cnc(C(F)F)cn34)n2)C1` (centres unmarked) [IV-63, 1-(2-(6-(Difluoromethyl)imidazo[1,2-a]pyrazin-3-yl)pyrimidin-4-yl)pyrrolidine-3-carboxamide], in test [1], the half-maximal inhibitory concentration (IC50) was > 5000 nM. This compound also registered a Ki at GCN2 kinase of 100 to 1000 nM.
In the same order, the values of `FC(F)c1cn2c(-c3nccc(N4CCC(c5cc[nH]n5)C4)n3)cnc2cn1` (centres unmarked) [IV-64, 3-(4-(3-(1H-Pyrazol-3-yl)pyrrolidin-1-yl)pyrimidin-2-yl)-6-(difluoromethyl)imidazo[1,2-a]pyrazine] are > 5000 nM and 100 to 1000 nM.
As to `Cn1cc(C2CCN(c3ccnc(-c4cnc5cnc(C(F)F)cn45)n3)C2)cn1` (centres unmarked) [IV-65, 6-(Difluoromethyl)-3-(4-(3-(1-methyl-1H-pyrazol-4-yl)pyrrolidin-1-yl)pyrimidin-2-yl)imidazo[1,2-a]pyrazine], the IC50 in test [1] was > 5000 nM. On GCN2 kinase, the Ki was 100 to 1000 nM.
The like results for `FC(F)c1cn2c(-c3nccc(N4CCC(c5c[nH]cn5)C4)n3)cnc2cn1` (centres unmarked) [IV-67, 3-(4-(3-(1H-Imidazol-4-yl)pyrrolidin-1-yl)pyrimidin-2-yl)-6-(difluoromethyl)imidazo[1,2-a]pyrazine] were, in that order, > 5000 nM and 100 to 1000 nM.
The like results for `FC(F)c1cn2c(-c3nccc(N4CCC(c5ccncc5)C4)n3)cnc2cn1` (centres unmarked) [IV-68, 6-(Difluoromethyl)-3-(4-(3-(pyridin-4-yl)pyrrolidin-1-yl)pyrimidin-2-yl)imidazo[1,2-a]pyrazine] were, in that order, > 5000 nM and 100 to 1000 nM.
Consider `O=C1NCCC12CCN(c1ccnc(-c3cnc4cnc(C(F)F)cn34)n1)C2` (centres unmarked) [IV-69, 7-(2-(6-(Difluoromethyl)imidazo[1,2-a]pyrazin-3-yl)pyrimidin-4-yl)-2,7-di azaspiro[4.4]nonan-1-one], for which, in test [1], the IC50 is > 5000 nM. Further, the Ki on GCN2 kinase was 100 to 1000 nM.
For `CS(=O)(=O)NC1CCN(c2ccnc(-c3cnc4cnc(C(F)F)cn34)n2)C1` (centres unmarked) [IV-70, N-(1-(2-(6-(Difluoromethyl)imidazo[1,2-a]pyrazin-3-yl)pyrimidin-4-yl)pyrrolidin-3-yl)methanesulfonamide], the half-maximal inhibitory concentration (IC50) in test [1] is > 5000 nM. Besides, the Ki on GCN2 kinase lay in the range of 100 to 1000 nM.
In the same order, the values of `CNS(=O)(=O)C1CCN(c2ccnc(-c3cnc4cnc(C(F)F)cn34)n2)C1` (centres unmarked) [IV-71, 1-(2-(6-(Difluoromethyl)imidazo[1,2-a]pyrazin-3-yl)pyrimidin-4-yl)-N-methylpyrrolidine-3-sulfonamide] are > 5000 nM and 100 to 1000 nM.
Take `OC1CCN(c2ccnc(-c3cnc4cnc(C(F)F)cn34)n2)C1` (centres unmarked) [IV-72, 1-(2-(6-(Difluoromethyl)imidazo[1,2-a]pyrazin-3-yl)pyrimidin-4-yl)pyrrolidin-3-ol]: the IC50 in test [1] was > 5000 nM. The Ki on GCN2 kinase fell in the range of 100 to 1000 nM.
In the same order, the values of `FC(F)c1cn2c(-c3nccc(N4CCC(C5COC5)C4)n3)cnc2cn1` (centres unmarked) [IV-73, 6-(Difluoromethyl)-3-(4-(3-(oxetan-3-yl)pyrrolidin-1-yl)pyrimidin-2-yl)imidazo[1,2-a]pyrazine] are > 5000 nM and 100 to 1000 nM.
In the same order, the values of `NS(=O)(=O)NCC1CCCN(c2ccnc(-c3cnc4cnc(C(F)F)cn34)n2)C1` (centres unmarked) [IV-74, 6-(Difluoromethyl)-3-[4-[3-[(sulfamoylamino)methyl]-1-piperidyl]pyrimidin-2-yl]imidazo[1,2-a]pyrazine] are > 5000 nM and 100 to 1000 nM.
The like results for `FC(F)c1cn2c(-c3nccc(N4CCC5(CCC5)C4)n3)cnc2cn1` [IV-75, 3-[4-(6-Azaspiro[3.4]octan-6-yl)pyrimidin-2-yl]-6-(difluoromethyl)imidazo[1,2-a]pyrazine] were, in that order, > 5000 nM and 100 to 1000 nM.
In the case of `FC(F)c1cn2c(-c3nccc(N4CCC(c5cccnc5)C4)n3)cnc2cn1` (centres unmarked) [IV-76, 6-(Difluoromethyl)-3-(4-(3-(pyridin-3-yl)pyrrolidin-1-yl)pyrimidin-2-yl)imidazo[1,2-a]pyrazine], the IC50 in test [1] was > 5000 nM. Besides, the Ki at GCN2 kinase was in the range of 100 to 1000 nM.
Take `FC(F)c1cn2c(-c3nccc(N4CCC(c5ccccn5)C4)n3)cnc2cn1` (centres unmarked) [IV-77, 6-(Difluoromethyl)-3-(4-(3-(pyridin-2-yl)pyrrolidin-1-yl)pyrimidin-2-yl)imidazo[1,2-a]pyrazine]: the IC50 in test [1] is > 5000 nM. For the same compound, the Ki at GCN2 kinase lay in the range of 100 to 1000 nM.
For the compound `CC(=O)N1CCN(c2ccnc(-c3cnc4cnc(C(C)(F)F)cn34)n2)CC1` [IV-78, 1-(4-(2-(6-(1,1-Difluoroethyl)imidazo[1,2-a]pyrazin-3-yl)pyrimidin-4-yl)piperazin-1-yl)ethan-1-one], in test [1], the IC50 was > 5000 nM. On GCN2 kinase, the Ki lay within 100 to 1000 nM.
For the compound `C[C@H]1COCCN1c1ccnc(-c2cnc3cnc(C(F)F)cn23)n1` [IV-81, (S)-4-(2-(6-(Difluoromethyl)imidazo[1,2-a]pyrazin-3-yl)pyrimidin-4-yl)-3-methylmorpholine], the IC50 in test [1] is > 5000 nM. The compound also returned a Ki at GCN2 kinase of 100 to 1000 nM.
For the compound `N#CCC1CCCN(c2ccnc(-c3cnc4cnc(C(F)F)cn34)n2)C1` (centres unmarked) [IV-82, 2-(1-(2-(6-(Difluoromethyl)imidazo[1,2-a]pyrazin-3-yl)pyrimidin-4-yl)piperidin-3-yl)acetonitrile], the IC50 in test [1] is > 5000 nM. Further, the Ki at GCN2 kinase fell in the range of 100 to 1000 nM.
The like results for `O=c1[nH]nc2n1CCN(c1ccnc(-c3cnc4cnc(C(F)F)cn34)n1)C2` [IV-83, 7-(2-(6-(Difluoromethyl)imidazo[1,2-a]pyrazin-3-yl)pyrimidin-4-yl)-5,6,7,8-tetrahydro-[1,2,4]triazolo[4,3-a]pyrazin-3 (2H)-one] were, in that order, > 5000 nM and 100 to 1000 nM.
In the same order, the values of `C[C@H]1CCCCN1c1ccnc(-c2cnc3cnc(C(F)F)cn23)n1` [IV-85, (S)-6-(Difluoromethyl)-3-(4-(2-methylpiperidin-1-yl)pyrimidin-2-yl)imidazo[1,2-a]pyrazine] are > 5000 nM and 100 to 1000 nM.
In the same order, the values of `O=C1NCCN2CCN(c3ccnc(-c4cnc5cnc(C(F)F)cn45)n3)CC12` (centres unmarked) [IV-86, 8-(2-(6-(Difluoromethyl)imidazo[1,2-a]pyrazin-3-yl)pyrimidin-4-yl)hexahydro-2H-pyrazino[1,2-a]pyrazin-1(6H)-one] are > 5000 nM and 100 to 1000 nM.
Regarding `O=C1NCC2(CCCN(c3ccnc(-c4cnc5cnc(C(F)F)cn45)n3)CC2)O1` (centres unmarked) [IV-87, 8-(2-(6-(Difluoromethyl)imidazo[1,2-a]pyrazin-3-yl)pyrimidin-4-yl)-1-oxa-3,8-diazaspiro[4.6]undecan-2-one], the IC50 in test [1] is > 5000 nM. This compound displayed a Ki at GCN2 kinase of 100 to 1000 nM.
`OCC1CCCCN(c2ccnc(-c3cnc4cnc(C(F)F)cn34)n2)C1` (centres unmarked) [IV-88, (1-(2-(6-(Difluoromethyl)imidazo[1,2-a]pyrazin-3-yl)pyrimidin-4-yl)azepan-3-yl)methanol]: the half-inhibitory concentration (IC50) in test [1] is > 5000 nM. This compound came in with a Ki at GCN2 kinase of 100 to 1000 nM.
Consider `CN1CCN(c2ccnc(-c3cnc4cnc(C(F)F)cn34)n2)CC1C(N)=O` (centres unmarked) [IV-89, 4-(2-(6-(Difluoromethyl)imidazo[1,2-a]pyrazin-3-yl)pyrimidin-4-yl)-1-methylpiperazine-2-carboxamide], for which, in test [1], the concentration for half-maximal inhibition (IC50) was > 5000 nM. The compound further returned a Ki at GCN2 kinase of 100 to 1000 nM.
For the compound `CC1(O)CCCN(c2ccnc(-c3cnc4cnc(C(F)F)cn34)n2)CC1` (centres unmarked) [IV-90, 1-(2-(6-(Difluoromethyl)imidazo[1,2-a]pyrazin-3-yl)pyrimidin-4-yl)-4-methylazepan-4-ol], in test [1], the IC50 was > 5000 nM. This compound also returned a Ki at GCN2 kinase of 100 to 1000 nM.
